Legend:
[1] = test system: Experimental autoimmune encephalomyelitis (EAE) in SJL/J mice; assay: EAE mouse model, clinical assessment (day of onset); type: in vivo
Description: To induce EAE, five-to-seven week old SJL/J (H-2S) female mice (Charles River; Wilmington, Mass.) were immunized subcutaneously with 200 μg PLP139-151 in a 0.2 mL emulsion comprised of equal volumes of phosphate-buffered saline (PBS) and complete Freund's adjuvant (CFA) containing killed Mycobacterium Tuberculosis strain H37RA (at a final concentration of 4 mg/ml, Difco, Detroit, Mich.). PLP139-151/CFA was administered to regions above the shoulder and the flanks (4 sites total; 50 μL at each injection site). In addition, 200 ng of pertussis toxin (List Biological Laboratories, Campbell, Calif.) was injected intraperitoneally on the day of immunization and 2 days post immunization.
Mice received intravenous injections of vehicle (PBS), HMG (25 μmol/mouse), or PLP-BPI (100 nmol/mouse) on days 4, 7, and 10 (n=6 per treatment group).

[2] = test system: serum cytokines and chemokines; assay: Serum cytokine and chemokine levels in EAE mice (multiplex ELISA array); type: in vivo, mouse
Description: FIG. 7 depicts serum levels of cytokines and chemokines in various treatment groups (PBS only control, PLP-BPI-treated, and HMG-treated) 14 days after immunization with PLP139-151/CFA to induce EAE. Data represent the mean±standard deviation. Statistical significance was determined by one way Analysis of Variance followed by post-hoc testing using the Tukey test.
Blood samples were collected from the facial vein in PBS-, HMG-, and PLP-BPI-treated mice on day 14 and day 28 (n=3 per group). Blood samples were allowed to clot overnight at 2-8° C. before centrifuging for 10 min at 2000×g. Serum was removed and stored at −80° C. until measurement of cytokines and chemokines was performed by a commercial analytical services laboratory.
The levels of key cytokines and chemokines were measured by multiplex ELISA array by a commercial analytical laboratory.

HMG-CoA reductase = biological target: T1, HMG-CoA reductase (Rattus norvegicus, UniProt P51639); conditions: compound at 10^−3 M; cited from earlier work
T1 sequence (P51639 1-887): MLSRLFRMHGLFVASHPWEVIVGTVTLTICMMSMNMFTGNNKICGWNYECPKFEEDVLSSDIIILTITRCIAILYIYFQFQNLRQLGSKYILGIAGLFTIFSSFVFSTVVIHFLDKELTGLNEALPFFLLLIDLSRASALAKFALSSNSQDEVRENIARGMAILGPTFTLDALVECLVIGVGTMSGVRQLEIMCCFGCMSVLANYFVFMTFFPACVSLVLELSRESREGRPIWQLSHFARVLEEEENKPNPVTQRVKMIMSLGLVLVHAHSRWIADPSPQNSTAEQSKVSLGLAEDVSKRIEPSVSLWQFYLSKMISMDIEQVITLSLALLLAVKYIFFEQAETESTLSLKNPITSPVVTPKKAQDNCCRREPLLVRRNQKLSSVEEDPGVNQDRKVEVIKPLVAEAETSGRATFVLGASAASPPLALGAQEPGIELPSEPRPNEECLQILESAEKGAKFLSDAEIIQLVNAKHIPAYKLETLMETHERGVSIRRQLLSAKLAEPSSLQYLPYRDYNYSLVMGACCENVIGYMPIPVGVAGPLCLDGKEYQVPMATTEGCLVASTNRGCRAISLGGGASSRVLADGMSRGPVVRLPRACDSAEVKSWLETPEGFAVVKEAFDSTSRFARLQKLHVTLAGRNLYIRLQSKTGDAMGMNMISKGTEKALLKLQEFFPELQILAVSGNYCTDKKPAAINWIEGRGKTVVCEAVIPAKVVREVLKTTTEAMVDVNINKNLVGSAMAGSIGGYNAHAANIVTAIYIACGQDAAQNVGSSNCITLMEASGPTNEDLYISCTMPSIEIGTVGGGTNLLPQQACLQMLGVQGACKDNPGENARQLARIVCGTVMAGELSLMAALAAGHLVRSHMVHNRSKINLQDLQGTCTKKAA

| SMILES | Disease phenotype as compared to vehicle only ([1]; EAE mice, i.v. on days 4, 7, 10) | Delay of average day of onset of EAE as compared to PBS treated mice ([1]; SJL/J mice, HMG 25 μmol/mouse i.v. on days 4, 7, 10) | Day of onset of EAE (day when EAE clinical score is one or more) ([1]; SJL/J mice, i.v. on days 4, 7, 10, HMG 25 μmol/mouse, PLP-BPI 100 nmol/mouse, PBS group day 11) [days] | Serum RANTES level ([2]; day 14, compared to PBS group) | Serum IFN gamma concentration ([2]; day 14, compared to PBS- or PLP-BPI-treated mice) | Serum IL-17 level ([2]; day 14, compared to PLP-BPI-treated animals) | Inflammation as measured by levels of some cytokines ([2]; day 14, versus PBS only) | Serum IL-1 alpha level ([2]; day 14 after immunization, compared to PBS group) | in vitro inhibition of HMGR @10^−3 M (HMG-CoA reductase) |
| --- | --- | --- | --- | --- | --- | --- | --- | --- | --- |
| CC(O)(CC(=O)O)CC(=O)O [HMG, 3-hydroxy-3-methylglutaric acid] | ameliorated disease phenotype | about 2 days | 13 | statistically significant reductions | much lower | significantly lower | reduced inflammation | statistically significant reductions | – |
| CCCCCCCCCCCCCCCC(O)(CC(=O)O)CC(=O)O [3j] | – | – | – | – | – | – | – | – | 99 |
| CCCCCCCCCCCCCCCCCCCC(O)(CC(=O)O)CC(=O)O [3m] | – | – | – | – | – | – | – | – | 86 |

Source: patent publication US20120121554A1, “HMG-COA SECONDARY METABOLITES AND USES THEREOF” (EDENSPACE SYSTEMS CORPORATION, priority 2009, published 2012)
